Consider 26 molecules from US9708334B2, “Substituted 2,4,5,6-tetrahydropyrrolo[3,4-c]pyrazole and 4,5,6,7-tetrahydro-2H-pyrazolo[4,3-c]pyridine compounds as GlyT1 inhibitors” (DART NEUROSCIENCE (CAYMAN) LTD., priority 2014, dated 2017).

This experiment has as its target T1, GlyT1 (Homo sapiens, UniProt P48067).
T1 construct: expressed in transfected cells
T1 sequence (P48067 1-706): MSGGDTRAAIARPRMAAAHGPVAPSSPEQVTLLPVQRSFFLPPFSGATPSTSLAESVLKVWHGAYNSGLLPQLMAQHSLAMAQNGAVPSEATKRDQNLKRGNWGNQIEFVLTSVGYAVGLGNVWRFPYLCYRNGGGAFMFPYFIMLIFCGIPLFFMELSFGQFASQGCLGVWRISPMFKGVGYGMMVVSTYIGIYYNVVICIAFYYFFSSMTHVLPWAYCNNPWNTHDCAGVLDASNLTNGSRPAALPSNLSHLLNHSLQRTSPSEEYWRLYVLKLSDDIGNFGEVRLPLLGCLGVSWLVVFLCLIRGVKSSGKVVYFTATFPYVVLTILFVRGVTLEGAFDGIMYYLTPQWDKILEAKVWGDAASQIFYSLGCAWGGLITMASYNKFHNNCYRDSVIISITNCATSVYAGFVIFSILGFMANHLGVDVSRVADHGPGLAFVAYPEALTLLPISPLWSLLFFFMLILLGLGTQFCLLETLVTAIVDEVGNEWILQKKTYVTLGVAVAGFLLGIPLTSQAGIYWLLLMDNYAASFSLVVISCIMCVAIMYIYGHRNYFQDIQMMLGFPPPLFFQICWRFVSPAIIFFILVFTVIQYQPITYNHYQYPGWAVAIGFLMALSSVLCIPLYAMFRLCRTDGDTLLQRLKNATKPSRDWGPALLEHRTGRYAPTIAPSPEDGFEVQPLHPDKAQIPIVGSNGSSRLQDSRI
Kind of experiment: Glycine Transporter 1 (GlyT1) uptake assay, scintillation proximity assay of [14C]-glycine uptake. Type of experiment: cell-based. To be noted: SPA, four parameter logistic fit, read-out: GlyT1 (pIC50) (converted). The method in brief:
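[14C]-glycine uptake read by scintillation proximity on a plate counter. IC50 from four-parameter logistic fit of dose-response data.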
On to `C[C@H](Oc1ccc(S(C)(=O)=O)cc1C(=O)N1Cc2cn(-c3ccc(F)c(C(F)F)c3)nc2C1)C(F)(F)F` [Example 75, 2-[3-(Difluoromethyl)-4-fluorophenyl]-5-(5-methanesulfonyl-2-{[(2S)-1 1 1-trifluoropropan-2-yl]oxy}benzoyl)-2H 4H 5H 6H-pyrrolo[3,4-c]pyrazole], for which the IC50 is less than 100 nM.
Next, `CC(C)Oc1ccc(S(C)(=O)=O)cc1C(=O)N1Cc2cn(-c3ccc(F)c(C(F)F)c3)nc2C1` [Example 76, 2-[3-(Difluoromethyl)-4-fluorophenyl]-5-[5-methanesulfonyl-2-(propan-2-yloxy)benzoyl]-2H 4H 5H 6H-pyrrolo[3,4-c]pyrazole]: less than 100 nM; `CC(C)(C)COc1ccc(S(C)(=O)=O)cc1C(=O)N1Cc2cn(-c3ccc(F)c(C(F)F)c3)nc2C1` [Example 77, 2-[3-(Difluoromethyl)-4-fluorophenyl]-5-[2-(2 2-dimethylpropoxy)-5-methanesulfonylbenzoyl]-2H 4H 5H 6H-pyrrolo[3,4-e]pyrazole]: less than 100 nM; `CCS(=O)(=O)c1ccc(O[C@@H](C)C(F)(F)F)c(C(=O)N2Cc3cn(-c4cccc(C)c4F)nc3C2)c1` [Example 78, 5-[5-(Ethanesulfonyl)-2-{[(2S)-1 1 1-trifluoropropan-2-yl]oxy}benzoyl]-2-(2-fluoro-3-methylphenyl)-2H 4H 5H 6H-pyrrolo[3,4-c]pyrazole]: less than 100 nM.
Take `CCS(=O)(=O)c1ccc(O[C@@H](C)C(F)(F)F)c(C(=O)N2Cc3cn(-c4ccc(F)c(C(F)F)c4)nc3C2)c1` [Example 79, 2-[3-(Difluoromethyl)-4-fluorophenyl]-5-[5-(ethanesulfonyl)-2-{[(2S)-1 1 1-trifluoropropan-2-yl]oxy}benzoyl]-2H 4H 5H 6H-pyrrolo[3,4-c]pyrazole]: the IC50 was less than 100 nM.
For `CCS(=O)(=O)c1ccc(O[C@@H](C)C(F)(F)F)c(C(=O)N2Cc3cn(-c4ccccc4F)nc3C2)c1` [Example 80, 5-[5-(Ethanesulfonyl)-2-{[(2S)-1 1 1-trifluoropropan-2-yl]oxy}benzoyl]-2-(2-fluorophenyl)-2H 4H 5H 6H-pyrrolo[3,4-c]pyrazole] the value was less than 100 nM; for `CCS(=O)(=O)c1ccc(OC(C)C)c(C(=O)N2Cc3cn(-c4ccc(F)cc4F)nc3C2)c1` [Example 81, 2-(2 4-Difluorophenyl)-5-[5-(ethanesulfonyl)-2-(propan-2-yloxy)benzoyl]-2H 4H 5H 6H-pyrrolo[3,4-c]pyrazole], 100 to 1000 nM; for `CCS(=O)(=O)c1ccc(OC(C)C)c(C(=O)N2Cc3cn(-c4ccc(F)c(C(F)F)c4)nc3C2)c1` [Example 82, 2-[3-(Difluoromethyl)-4-fluorophenyl]-5-[5-(ethanesulfonyl)-2-(propan-2-yloxy)benzoyl]-2H 4H 5H 6H-pyrrolo[3,4-c]pyrazole], less than 100 nM.
Next, `CCS(=O)(=O)c1ccc(OC(C)C)c(C(=O)N2Cc3cn(-c4cccc(C)c4)nc3C2)c1` [Example 83, 5-[5-(Ethanesulfonyl)-2-(propan-2-yloxy)benzoyl]-2-(3-methylphenyl)-2H 4H 5H 6H-pyrrolo[3,4-c]pyrazole]: less than 100 nM; `CCS(=O)(=O)c1ccc(OC(C)C)c(C(=O)N2Cc3cn(-c4ccc(F)cc4)nc3C2)c1` [Example 84, 5-[5-(Ethanesulfonyl)-2-(propan-2-yloxy)benzoyl]-2-(4-fluorophenyl)-2H 4H 5H 6H-pyrrolo[3,4-c]pyrazole]: less than 100 nM; `Cc1cccc(-n2cc3c(n2)CN(C(=O)c2cc(S(C)(=O)=O)ccc2OC(C)C)C3)c1` [Example 85, 5-[5-Methanesulfonyl-2-(propan-2-yloxy)benzoyl]-2-(3-methylphenyl)-2H 4H 5H 6H-pyrrolo[3,4-c]pyrazole]: less than 100 nM.
For `CC(C)S(=O)(=O)c1ccc(O[C@@H](C)C(F)(F)F)c(C(=O)N2Cc3cn(-c4cccc(C(F)(F)F)c4F)nc3C2)c1` [Example 86, 2-[2-Fluoro-3-(trifluoromethyl)phenyl]-5-[5-(propane-2-sulfonyl)-2-{[(2S)-1 1 1-trifluoropropan-2-yl]oxy}benzoyl]-2H 4H 5H 6H-pyrrolo[3,4-c]pyrazole] the value was 100 to 1000 nM.
As for `Cc1cccc(-n2cc3c(n2)CN(C(=O)c2cc(S(=O)(=O)C(C)C)ccc2O[C@@H](C)C(F)(F)F)C3)c1F` [Example 87, 2-(2-Fluoro-3-methylphenyl)-5-[5-(propane-2-sulfonyl)-2-{[(2S)-1 1 1-trifluoropropan-2-yl]oxy}benzoyl]-2H 4H 5H 6H-pyrrolo[3,4-c]pyrazole], the IC50 is 100 to 1000 nM.
Next, `CC(C)S(=O)(=O)c1ccc(O[C@@H](C)C(F)(F)F)c(C(=O)N2Cc3cn(-c4ccccc4F)nc3C2)c1` [Example 88, 2-(2-Fluorophenyl)-5-[5-(propane-2-sulfonyl)-2-{[(2S)-1 1 1-trifluoropropan-2-yl]oxy}benzoyl]-2H 4H 5H 6H-pyrrolo[3,4-c]pyrazole]: 100 to 1000 nM; `Cc1cccc(-n2cc3c(n2)CN(C(=O)c2cc(S(=O)(=O)C(C)C)ccc2O[C@@H](C)C(F)(F)F)C3)c1` [Example 89, 2-(3-Methylphenyl)-5-[5-(propane-2-sulfonyl)-2-{[(2S)-1 1 1-trifluoropropan-2-yl]oxy}benzoyl]-2H 4H 5H 6H-pyrrolo[3,4-c]pyrazole]: 100 to 1000 nM.
Next, `CC(C)S(=O)(=O)c1ccc(O[C@@H](C)C(F)(F)F)c(C(=O)N2Cc3cn(-c4ccccc4)nc3C2)c1` [Example 90, 2-Phenyl-5-[5-(propane-2-sulfonyl)-2-{[(2S)-1 1 1-trifluoropropan-2-yl]oxy}benzoyl]-2H 4H 5H 6H-pyrrolo[3,4-c]pyrazole]: 100 to 1000 nM; `CC(C)S(=O)(=O)c1ccc(O[C@@H](C)C(F)(F)F)c(C(=O)N2Cc3cn(-c4ccc(F)cc4)nc3C2)c1` [Example 91, 2-(4-Fluorophenyl)-5-[5-(propane-2-sulfonyl)-2-{[(2S)-1 1 1-trifluoropropan-2-yl]oxy}benzoyl]-2H 4H 5H 6H-pyrrolo[3,4-c]pyrazole]: 100 to 1000 nM.
Next, `CC(C)S(=O)(=O)c1ccc(O[C@@H](C)C(F)(F)F)c(C(=O)N2Cc3cn(-c4ccc(F)c(F)c4)nc3C2)c1` [Example 92, 2-(3 4-Difluorophenyl)-5-[5-(propane-2-sulfonyl)-2-{[(2S)-1 1 1-trifluoropropan-2-yl]oxy}benzoyl]-2H 4H 5H 6H-pyrrolo[3,4-c]pyrazole]: 100 to 1000 nM; `CC(C)Oc1ccc(S(=O)(=O)C(C)C)cc1C(=O)N1Cc2cn(-c3cccc(C(F)(F)F)c3F)nc2C1` [Example 93, 2-[2-Fluoro-3-(trifluoromethyl)phenyl]-5-[2-(propan-2-yloxy)-5-(propane-2-sulfonyl)benzoyl]-2H 4H 5H 6H-pyrrolo[3,4-c]pyrazole]: 1000 to 10000 nM; `Cc1cccc(-n2cc3c(n2)CN(C(=O)c2cc(S(=O)(=O)C(C)C)ccc2OC(C)C)C3)c1F` [Example 94, 2-(2-Fluoro-3-methylphenyl)-5-[2-(propan-2-yloxy)-5-(propane-2-sulfonyl)benzoyl]-2H 4H 5H 6H-pyrrolo[3,4-c]pyrazole]: 1000 to 10000 nM.
On to `CC(C)Oc1ccc(S(=O)(=O)C(C)C)cc1C(=O)N1Cc2cn(-c3ccccc3F)nc2C1` [Example 95, 2-(2-Fluorophenyl)-5-[2-(propan-2-yloxy)-5-(propane-2-sulfonyl)benzoyl]-2H 4H 5H 6H-pyrrolo[3,4-c]pyrazole], for which the IC50 is 1000 to 10000 nM.
Turning to `Cc1cccc(-n2cc3c(n2)CN(C(=O)c2cc(S(=O)(=O)C(C)C)ccc2OC(C)C)C3)c1` [Example 96, 2-(3-Methylphenyl)-5-[2-(propan-2-yloxy)-5-(propane-2-sulfonyl)benzoyl]-2H 4H 5H 6H-pyrrolo[3,4-c]pyrazole], the IC50 was 1000 to 10000 nM.
Consider `CC(C)Oc1ccc(S(=O)(=O)C(C)C)cc1C(=O)N1Cc2cn(-c3ccccc3)nc2C1` [Example 97, 2-Phenyl-5-[2-(propan-2-yloxy)-5-(propane-2-sulfonyl)benzoyl]-2H 4H 5H 6H-pyrrolo[3,4-c]pyrazole], for which the IC50 was 1000 to 10000 nM.
Turning to `CC(C)Oc1ccc(S(=O)(=O)C(C)C)cc1C(=O)N1Cc2cn(-c3ccc(F)cc3)nc2C1` [Example 98, 2-(4-Fluorophenyl)-5-[2-(propan-2-yloxy)-5-(propane-2-sulfonyl)benzoyl]-2H 4H 5H 6H-pyrrolo[3,4-c]pyrazole], the IC50 was 100 to 1000 nM.
Next, `CC(C)Oc1ccc(S(=O)(=O)C(C)C)cc1C(=O)N1Cc2cn(-c3ccc(F)c(F)c3)nc2C1` [Example 99, 2-(3 4-Difluorophenyl)-5-[2-(propan-2-yloxy)-5-(propane-2-sulfonyl)benzoyl]-2H 4H 5H 6H-pyrrolo[3,4-c]pyrazole]: 100 to 1000 nM.
`Cc1cc(-n2cc3c(n2)CN(C(=O)c2cc(S(C)(=O)=O)ccc2N2CCC(F)(F)CC2)C3)ccn1` [Example 101, 4-{5-[2-(4 4-Difluoropiperidin-1-yl)-5-methanesulfonylbenzoyl]-2H 4H 5H 6H-pyrrolo[3,4-c]pyrazol-2-yl}-2-methylpyridine]: the IC50 is less than 100 nM.
